# Measured values taken from ChEMBL document CHEMBL5356994, “Synthesis, biological and molecular modelling for 1,3,4-thiadiazole sulfonyl thioureas: bacterial and fungal activity” (RSC Med Chem, 2023).
# Columns and labels:
# Clostridioides difficile = test: Antibacterial activity against Clostridium difficile assessed as inhibition of bacterial growth incubated for 18 to 20 hrs by microbroth dilution method; format: functional; conditions: time 18-20 hrs
# Bacillus subtilis = test: Antibacterial activity against Bacillus subtilis assessed as inhibition of bacterial growth incubated for 18 to 20 hrs by microbroth dilution method; format: functional; conditions: time 18-20 hrs
# Aspergillus flavus [1] = test: Antifungal activity against Aspergillus flavus assessed as inhibition of fungal growth incubated for 72 hrs by agar dilution method; format: functional
# Saccharomyces cerevisiae = test: Antifungal activity against Saccharomyces cerevisiae assessed as inhibition of fungal growth incubated for 72 hrs by agar dilution method; format: functional
# Staphylococcus aureus [2] = test: Antibacterial activity against Staphylococcus aureus assessed as inhibition of bacterial growth incubated for 18 to 20 hrs by microbroth dilution method; format: functional; conditions: time 18-20 hrs
# Fusarium oxysporum = test: Antifungal activity against Fusarium oxysporum assessed as inhibition of fungal growth incubated for 72 hrs by agar dilution method; format: functional
# Streptococcus pneumoniae = test: Antibacterial activity against Streptococcus pneumoniae assessed as inhibition of bacterial growth incubated for 18 to 20 hrs by microbroth dilution method; format: functional; conditions: time 18-20 hrs
# Pseudomonas aeruginosa = test: Antibacterial activity against Pseudomonas aeruginosa assessed as inhibition of bacterial growth incubated for 18 to 20 hrs by microbroth dilution method; format: functional; conditions: time 18-20 hrs
# Candida albicans [3] = test: Antifungal activity against Candida albicans assessed as inhibition of fungal growth incubated for 72 hrs by agar dilution method; format: functional
# Escherichia coli [4] = test: Antibacterial activity against Escherichia coli assessed as inhibition of bacterial growth incubated for 18 to 20 hrs by microbroth dilution method; format: functional; conditions: time 18-20 hrs
# Salmonella typhimurium = test: Antibacterial activity against Salmonella typhimurium assessed as inhibition of bacterial growth incubated for 18 to 20 hrs by microbroth dilution method; format: functional, Salmonella enterica subsp. enterica serovar Typhimurium; conditions: Salmonella enterica; time 18-20 hrs
# Klebsiella pneumoniae = test: Antibacterial activity against Klebsiella pneumoniae assessed as inhibition of bacterial growth incubated for 18 to 20 hrs by microbroth dilution method; format: functional; conditions: time 18-20 hrs
# Aspergillus niger = test: Antifungal activity against Aspergillus niger assessed as inhibition of fungal growth incubated for 72 hrs by agar dilution method; format: functional
# [5] = tested on: Staphylococcus epidermidis; test: Antibacterial activity against Staphylococcus epidermidis assessed as inhibition of bacterial growth incubated for 18 to 20 hrs by microbroth dilution method; format: functional; conditions: time 18-20 hrs
# Candida albicans [6] = test: Antifungal activity against Candida albicans assessed as inhibition of fungal growth incubated for 20 hrs by macro-broth dilution method; format: functional
# Aspergillus flavus [7] = test: Antifungal activity against Aspergillus flavus assessed as inhibition of fungal growth incubated for 16 to 18 hrs by serial dilution method; format: functional; conditions: time 16-18 hrs
# Staphylococcus aureus [8] = test: Antibacterial activity against Staphylococcus aureus assessed as inhibition of bacterial growth incubated for 16 to 18 hrs by serial dilution method; format: functional; conditions: time 16-18 hrs
# Escherichia coli [9] = test: Antibacterial activity against Escherichia coli assessed as inhibition of bacterial growth incubated for 16 to 18 hrs by serial dilution method; format: functional; conditions: time 16-18 hrs
# Candida albicans [10] = test: Antifungal activity against Candida albicans assessed as inhibition of fungal growth incubated for 16 to 18 hrs by serial dilution method; format: functional; conditions: time 16-18 hrs
# DNA gyrase subunit B = DNA gyrase subunit B (Staphylococcus aureus, UniProt P0A0K8); test: Inhibition of Staphylococcus aureus DNA gyrase subunit B ATPase activity using relaxed pNO1 plasmid as substrate incubated for 30 mins by microplate reader analysis
# Sequence of DNA gyrase subunit B (P0A0K8 whole entry): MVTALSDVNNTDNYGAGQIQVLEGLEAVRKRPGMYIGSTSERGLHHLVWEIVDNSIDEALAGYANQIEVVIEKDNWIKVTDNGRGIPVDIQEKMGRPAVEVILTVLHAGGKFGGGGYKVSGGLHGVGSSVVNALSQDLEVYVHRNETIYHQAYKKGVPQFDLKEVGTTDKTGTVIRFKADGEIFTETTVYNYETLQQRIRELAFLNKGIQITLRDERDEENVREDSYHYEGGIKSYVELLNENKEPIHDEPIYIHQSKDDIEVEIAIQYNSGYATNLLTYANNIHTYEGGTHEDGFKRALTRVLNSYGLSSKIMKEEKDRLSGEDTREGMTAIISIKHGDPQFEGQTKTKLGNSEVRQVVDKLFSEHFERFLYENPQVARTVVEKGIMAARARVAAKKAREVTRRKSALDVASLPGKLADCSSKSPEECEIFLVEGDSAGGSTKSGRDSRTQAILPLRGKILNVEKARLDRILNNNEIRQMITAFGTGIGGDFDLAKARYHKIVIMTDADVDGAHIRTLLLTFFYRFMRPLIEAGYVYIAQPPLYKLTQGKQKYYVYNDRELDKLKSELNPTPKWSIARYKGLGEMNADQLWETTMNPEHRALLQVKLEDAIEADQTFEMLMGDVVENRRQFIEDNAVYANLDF
# [11] = target: DNA topoisomerase 4 subunit B (Staphylococcus aureus, UniProt P0C1S7); test: Inhibition of Staphylococcus aureus DNA topoisomerase 4 subunit B ATPase activity using relaxed pNO1 plasmid as substrate incubated for 30 mins by microplate reader analysis
# Sequence of DNA topoisomerase 4 subunit B (P0C1S7 whole entry): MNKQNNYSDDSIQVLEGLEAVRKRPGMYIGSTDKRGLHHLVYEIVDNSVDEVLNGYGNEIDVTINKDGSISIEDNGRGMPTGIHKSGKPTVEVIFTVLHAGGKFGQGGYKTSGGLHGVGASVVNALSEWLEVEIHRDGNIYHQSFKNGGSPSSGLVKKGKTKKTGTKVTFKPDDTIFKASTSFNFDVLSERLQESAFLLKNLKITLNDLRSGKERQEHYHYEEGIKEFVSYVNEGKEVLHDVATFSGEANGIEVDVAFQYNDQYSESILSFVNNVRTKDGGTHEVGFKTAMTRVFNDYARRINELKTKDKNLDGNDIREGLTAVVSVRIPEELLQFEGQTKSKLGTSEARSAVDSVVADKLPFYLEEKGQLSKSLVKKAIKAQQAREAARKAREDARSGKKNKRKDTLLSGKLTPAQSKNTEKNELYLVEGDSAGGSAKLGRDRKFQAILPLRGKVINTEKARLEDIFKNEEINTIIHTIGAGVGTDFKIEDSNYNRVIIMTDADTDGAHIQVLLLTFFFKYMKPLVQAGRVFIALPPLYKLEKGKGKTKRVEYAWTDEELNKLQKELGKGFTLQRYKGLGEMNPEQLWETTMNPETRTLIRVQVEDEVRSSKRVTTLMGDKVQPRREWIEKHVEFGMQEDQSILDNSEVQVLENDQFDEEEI
# Dihydrofolate reductase = Dihydrofolate reductase (Staphylococcus aureus, UniProt P0A017); test: Inhibition of Staphylococcus aureus dihydrofolate reductase using dihydrofolate as substrate in presence of NADPH by microplate reader analysis
# Sequence of Dihydrofolate reductase (P0A017 whole entry): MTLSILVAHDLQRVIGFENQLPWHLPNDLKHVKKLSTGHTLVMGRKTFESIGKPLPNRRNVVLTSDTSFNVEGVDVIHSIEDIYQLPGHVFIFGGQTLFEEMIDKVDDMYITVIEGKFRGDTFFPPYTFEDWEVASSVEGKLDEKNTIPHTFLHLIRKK
# Phytophthora infestans = test: Antifungal activity against Phytophthora infestans assessed as inhibition of fungal growth incubated for 5 days by poison plate technique; format: functional, organism-based; conditions: 120 h
# [12] = tested on: Mycobacterium tuberculosis; test: Antitubercular activity against Mycobacterium tuberculosis H37Rv assessed as inhibition of bacterial growth incubated for 24 hrs by two-fold dilution method; format: functional
# Carbonic anhydrase 2 = Carbonic anhydrase 2 (Homo sapiens, UniProt P00918); test: Inhibition of human carbonic anhydrase II esterase activity using p-nitrophenol acetate as substrate and measured for 3 mins by UV/visible spectrophotometric analysis
SMILES,MIC (Clostridioides difficile) [µg/mL],MIC (Bacillus subtilis) [µg/mL],MIC (Aspergillus flavus [1]) [µg/mL],MIC (Saccharomyces cerevisiae) [µg/mL],MIC (Staphylococcus aureus [2]) [µg/mL],MIC (Fusarium oxysporum) [µg/mL],MIC (Streptococcus pneumoniae) [µg/mL],MIC (Pseudomonas aeruginosa) [µg/mL],MIC (Candida albicans [3]) [µg/mL],MIC (Escherichia coli [4]) [µg/mL],MIC (Salmonella typhimurium) [µg/mL],MIC (Klebsiella pneumoniae) [µg/mL],MIC (Aspergillus niger) [µg/mL],MIC [5] [µg/mL],further results
Cc1ccc(S(=O)(=O)NC(=S)Nc2nnc(CC(C)C)s2)cc1,3.12,0.78,0.78,3.12,100,1.56,0.78,6.25,3.12,6.25,50,400,50,12.5,–
Cc1ccc(S(=O)(=O)NC(=S)Nc2nnc(C)s2)cc1,6.25,6.25,25,6.25,25,25,12.5,1.56,0.78,50,12.5,6.25,50,100,–
C=CCNc1nnc(-c2ccccc2OCc2ccc(Cl)cc2)s1,–,–,–,–,–,–,–,–,–,–,–,–,–,–,MIC (Candida albicans [6]): 0.08 µg/mL
S=C(/N=C/c1cc2cc(Cl)ccc2nc1Cl)Nc1nnc(-c2ccc(Cl)cc2)s1,–,–,–,–,–,–,–,–,–,–,–,–,–,–,MIC (Aspergillus flavus [7]): 3.12 µg/mL; MIC (Staphylococcus aureus [8]): 3.12 µg/mL; MIC (Escherichia coli [9]): 3.12 µg/mL; MIC (Candida albicans [10]): 3.12 µg/mL
CCCCCc1nnc(NC(=S)NS(=O)(=O)c2ccc(C)cc2)s1,12.5,200,12.5,400,0.78,1.56,200,0.78,200,0.78,100,1.56,3.12,0.78,IC50 (DNA gyrase subunit B): 1220 nM; IC50 [11]: 53800 nM; IC50 (Dihydrofolate reductase): 230 nM
CC(=O)OC[C@H]1O[C@@H](Sc2nnc(NC(=O)c3ccc(F)cc3)s2)[C@@H](OC(C)=O)[C@H](OC(C)=O)[C@@H]1OC(C)=O,–,–,–,–,–,–,–,–,–,–,–,–,–,–,EC50 (Phytophthora infestans): 3.43 µg/mL
COc1ccc(/C(=C/C(=O)N2CCOCC2)c2ccc(Cl)cc2)cc1OC,–,–,–,–,–,–,–,–,–,–,–,–,–,–,EC50 (Phytophthora infestans): 5.53 µg/mL
FC(F)(F)c1cc(NC(=S)Nc2nnc(-c3ccc(Cl)cc3)s2)ccc1Cl,–,–,–,–,–,–,–,–,–,–,–,–,–,–,MIC [12]: 10.9 µM
Cc1ccc(S(=O)(=O)NC(=S)Nc2nnc(C(C)C)s2)cc1,50,1.56,200,100,12.5,6.25,3.12,12.5,6.25,3.12,6.25,3.12,6.25,1.56,–
Cc1ccc(S(=O)(=O)NC(=S)Nc2nncs2)cc1,200,12.5,50,12.5,3.12,25,12.5,25,25,1.56,1.56,50,200,3.12,IC50 (DNA gyrase subunit B): 1560 nM; IC50 [11]: 67600 nM; IC50 (Dihydrofolate reductase): 370 nM
NC(=O)N/N=C/c1ccc([N+](=O)[O-])o1 [NITROFURAZONE],–,–,–,–,–,–,–,–,–,–,–,–,–,–,MIC (Aspergillus flavus [7]): 6.25 µg/mL; MIC (Staphylococcus aureus [8]): 6.25 µg/mL; MIC (Escherichia coli [9]): 6.25 µg/mL; MIC (Candida albicans [10]): 6.25 µg/mL
O=C(O)c1cn(C2CC2)c2cc(N3CCNCC3)c(F)cc2c1=O [CIPROFLOXACIN],–,3.12,–,–,3.12,–,–,1.56,–,–,1.56,1.56,–,3.12,–
O=S(=O)(NC(=S)Nc1ccccc1)c1ccc(Cl)cc1,–,–,–,–,–,–,–,–,–,–,–,–,–,–,IC50 (Carbonic anhydrase 2): 384000 nM
CCc1nnc(NC(=S)NS(=O)(=O)c2ccc(C)cc2)s1,0.78,1.56,6.25,25,6.25,6.25,3.12,50,1.56,200,3.12,12.5,100,50,IC50 (DNA gyrase subunit B): 3170 nM; IC50 [11]: 78100 nM; IC50 (Dihydrofolate reductase): 470 nM
OC(Cn1cncn1)(Cn1cncn1)c1ccc(F)cc1F [FLUCONAZOLE],–,–,0.78,0.78,–,0.78,–,–,0.78,–,–,–,1.56,–,MIC (Aspergillus flavus [7]): 6.25 µg/mL; MIC (Staphylococcus aureus [8]): 6.25 µg/mL; MIC (Candida albicans [6]): 0.05 µg/mL; MIC (Escherichia coli [9]): 6.25 µg/mL; MIC (Candida albicans [10]): 6.25 µg/mL
O=S(=O)(NC(=S)Nc1ccccc1)c1ccccc1,–,–,–,–,–,–,–,–,–,–,–,–,–,–,IC50 (Carbonic anhydrase 2): 422000 nM
Fc1ccc(NC(=S)Nc2nnc(-c3ccc(F)cc3)s2)cc1,–,–,–,–,–,–,–,–,–,–,–,–,–,–,MIC [12]: 10.9 µM
CCCc1nnc(NC(=S)NS(=O)(=O)c2ccc(C)cc2)s1,25,3.12,1.56,1.56,50,200,1.56,100,3.12,12.5,25,25,12.5,25,–
Fc1ccc(NC(=S)Nc2nnc(-c3ccc(Cl)cc3)s2)cc1,–,–,–,–,–,–,–,–,–,–,–,–,–,–,MIC [12]: 11 µM
Clc1ccc(COC(Cn2ccnc2)c2ccc(Cl)cc2Cl)c(Cl)c1 (configuration not stated) [MICONAZOLE],–,–,1.56,3.12,–,3.12,–,–,3.12,–,–,–,1.56,–,–
CN[C@H](CC(C)C)C(=O)N[C@H]1C(=O)N[C@@H](CC(N)=O)C(=O)N[C@H]2C(=O)N[C@H]3C(=O)N[C@H](C(=O)N[C@H](C(=O)O)c4cc(O)cc(O)c4-c4cc3ccc4O)[C@H](O)c3ccc(c(Cl)c3)Oc3cc2cc(c3O[C@@H]2O[C@H](CO)[C@@H](O)[C@H](O)[C@H]2O[C@H]2C[C@](C)(N)[C@H](O)[C@H](C)O2)Oc2ccc(cc2Cl)[C@H]1O [VANCOMYCIN],1.56,1.56,–,–,1.56,–,1.56,–,–,–,–,–,–,0.78,–
NNC(=O)c1ccncc1 [ISONIAZID],–,–,–,–,–,–,–,–,–,–,–,–,–,–,MIC [12]: 17.8 µM
CC[C@@H](CO)NCCN[C@@H](CC)CO [ETHAMBUTOL],–,–,–,–,–,–,–,–,–,–,–,–,–,–,MIC [12]: 11.5 µM
CCCCc1nnc(NC(=S)NS(=O)(=O)c2ccc(C)cc2)s1,400,400,400,400,400,400,400,400,400,400,400,400,400,400,–
Cc1ccc(S(=O)(=O)NC(=S)Nc2nnc(CCC(C)C)s2)cc1,1.56,100,3.12,0.78,1.56,0.78,50,3.12,12.5,25,0.78,0.78,0.78,6.25,IC50 (DNA gyrase subunit B): 1620 nM; IC50 [11]: 66700 nM; IC50 (Dihydrofolate reductase): 350 nM
